Laboratory results reported in ChEMBL document CHEMBL1201862, “PubChem BioAssay data set” (2004).
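Grown in 96-well plates, cells were treated for 48 hours with each compound at five concentrations. Insufficient inhibition: endpoint recorded as highest concentration tested. GI50 = concentration required for 50% inhibition of growth.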 Active and inactive are the calls of the source. Cut-off read from the data, not from the text of the source: active = GI50 up to about 1.1 µM and inactive = higher.

How the values were obtained:
Experiment in all cases: inhibition of tumour cell growth, NCI panel, 48 h
ACHN = system: ACHN
BT-549 = system: BT-549
CAKI-1 = system: CAKI-1
DU-145 = system: DU-145
HOP-92 = system: HOP-92
HT-29 = system: HT-29
KM12 = system: KM12
M14 = system: M14
MCF7 = system: MCF7
MOLT-4 = system: MOLT-4
OVCAR-3 = system: OVCAR-3
OVCAR-4 = system: OVCAR-4
SK-MEL-2 = system: SK-MEL-2
SK-OV-3 = system: SK-OV-3
SNB-19 = system: SNB-19
SR = system: SR
TK-10 = system: TK-10
UACC-257 = system: UACC-257

Measured: GI50

COc1cc2c(cc1O)NC(=S)[C@@H]1CCCN1C2=O
inactive: ACHN > 100 µM | BT-549 > 100 µM | CAKI-1 > 100 µM | DU-145 > 100 µM | HOP-92 > 100 µM | HT-29 > 100 µM | KM12 > 100 µM | M14 > 100 µM | MCF7 > 100 µM | MOLT-4 > 100 µM | OVCAR-3 > 100 µM | OVCAR-4 > 100 µM | SK-MEL-2 > 100 µM | SK-OV-3 > 100 µM | SNB-19 > 100 µM | SR 50.1 µM | TK-10 > 100 µM | UACC-257 > 100 µM

C=C1CC(Cn2ccc(=O)[nH]c2=O)(c2ccc(OC)cc2)OC1=O (configuration not stated)
inactive: ACHN 18.7 µM | BT-549 12.2 µM | CAKI-1 6.34 µM | DU-145 17.4 µM | HOP-92 2.34 µM | HT-29 13.2 µM | KM12 18.8 µM | M14 7.21 µM | MCF7 4.43 µM | MOLT-4 2.5 µM | OVCAR-3 19.3 µM | OVCAR-4 16.8 µM | SK-MEL-2 12.8 µM | SK-OV-3 28.8 µM | SNB-19 > 68.4 µM | SR 2.9 µM | TK-10 10 µM | UACC-257 14.8 µM

CCCC(=O)OCOC(=O)N(C)/N=N/c1ccc(C(=O)OCC)cc1
inactive: ACHN 17.5 µM | BT-549 26.8 µM | CAKI-1 43.8 µM | DU-145 22.2 µM | HOP-92 19.4 µM | HT-29 18.2 µM | KM12 26.4 µM | M14 24.3 µM | MCF7 17.8 µM | MOLT-4 39.4 µM | OVCAR-3 33.7 µM | OVCAR-4 39.4 µM | SK-MEL-2 15.2 µM | SK-OV-3 41.5 µM | SNB-19 68.9 µM | SR 23.7 µM | TK-10 27.9 µM | UACC-257 33.7 µM

CN1CCN(c2n[nH]c(=O)c3c2nnn3C2CCCCC2)CC1
inactive: ACHN > 100 µM | BT-549 > 100 µM | CAKI-1 > 100 µM | DU-145 > 100 µM | HOP-92 > 100 µM | HT-29 > 100 µM | KM12 > 100 µM | M14 > 100 µM | MCF7 > 100 µM | MOLT-4 > 100 µM | OVCAR-3 > 100 µM | OVCAR-4 > 100 µM | SK-MEL-2 > 100 µM | SNB-19 > 100 µM | SR > 100 µM | TK-10 > 100 µM | UACC-257 > 100 µM

Cc1cn(Cc2cccc(C3=NCCCN3)c2)c(=O)n(Cc2cccc(C3=NCCCN3)c2)c1=O
inactive: ACHN > 100 µM | BT-549 > 100 µM | CAKI-1 > 100 µM | DU-145 > 100 µM | HOP-92 > 100 µM | KM12 > 100 µM | M14 > 100 µM | MCF7 > 100 µM | MOLT-4 > 100 µM | OVCAR-3 > 100 µM | OVCAR-4 > 100 µM | SK-MEL-2 > 100 µM | SK-OV-3 > 100 µM | SNB-19 > 100 µM | SR > 100 µM | TK-10 > 100 µM | UACC-257 > 100 µM

O=C(/C=C1\Nc2ccc([N+](=O)[O-])cc2N\C1=C/C(=O)c1ccc(F)cc1)c1ccc(F)cc1
inactive: ACHN 13.9 µM | BT-549 31.1 µM | CAKI-1 48.1 µM | DU-145 > 100 µM | HOP-92 35.1 µM | HT-29 > 100 µM | KM12 > 100 µM | M14 > 100 µM | MCF7 52.8 µM | MOLT-4 17.6 µM | OVCAR-3 25 µM | OVCAR-4 > 100 µM | SK-MEL-2 17.2 µM | SK-OV-3 17.9 µM | SNB-19 23.1 µM | SR 16.8 µM | TK-10 15.3 µM | UACC-257 > 100 µM

O=C1CCC2(O)C3Cc4ccc(Oc5nnnn5-c5ccccc5)c5c4C2(CCN3CC2CC2)C1O5 (configuration not stated)
inactive: ACHN > 100 µM | BT-549 96.2 µM | CAKI-1 > 100 µM | DU-145 > 100 µM | HOP-92 50.2 µM | HT-29 26.4 µM | KM12 > 100 µM | M14 18 µM | MCF7 54 µM | MOLT-4 21 µM | OVCAR-3 46.7 µM | OVCAR-4 79.6 µM | SK-MEL-2 22.1 µM | SK-OV-3 > 100 µM | SNB-19 95.7 µM | SR 15.6 µM | TK-10 62.5 µM | UACC-257 28.2 µM

CC(O)(CNS(=O)(=O)c1ccccc1)c1ccccc1 (configuration not stated)
inactive: ACHN > 100 µM | BT-549 > 100 µM | CAKI-1 > 100 µM | DU-145 > 100 µM | HOP-92 > 100 µM | HT-29 > 100 µM | KM12 > 100 µM | M14 > 100 µM | MCF7 > 100 µM | OVCAR-3 > 100 µM | OVCAR-4 > 100 µM | SK-MEL-2 > 100 µM | SK-OV-3 > 100 µM | SNB-19 > 100 µM | SR > 100 µM | TK-10 > 100 µM

CCCN(CCCc1ccccc1)CCc1ccc2[nH]c(=S)[nH]c2c1
inactive: ACHN 29.2 µM | BT-549 68.9 µM | CAKI-1 28.9 µM | DU-145 44.3 µM | HOP-92 8.87 µM | KM12 26.1 µM | M14 16.7 µM | MCF7 28.2 µM | MOLT-4 11.3 µM | OVCAR-3 37.1 µM | OVCAR-4 76.4 µM | SK-MEL-2 19.3 µM | SK-OV-3 53.8 µM | SNB-19 26.1 µM | SR 2.89 µM | TK-10 71.1 µM | UACC-257 25.6 µM

NC(=O)CC(N)c1nnn[nH]1 (configuration not stated)
inactive: ACHN > 100 µM | BT-549 > 100 µM | CAKI-1 > 100 µM | DU-145 > 100 µM | HOP-92 > 100 µM | HT-29 > 100 µM | KM12 > 100 µM | M14 > 100 µM | MCF7 > 100 µM | MOLT-4 > 100 µM | OVCAR-3 > 100 µM | OVCAR-4 > 100 µM | SK-MEL-2 > 100 µM | SK-OV-3 > 100 µM | SNB-19 > 100 µM | SR > 100 µM | TK-10 > 100 µM | UACC-257 > 100 µM

O=[N+]([O-])c1cc(-[n+]2cc([O-])on2)ccc1F
inactive: ACHN 17 µM | BT-549 16.1 µM | CAKI-1 2.11 µM | DU-145 12.8 µM | HOP-92 16.9 µM | HT-29 14.9 µM | KM12 17.2 µM | M14 16.1 µM | MCF7 12.8 µM | OVCAR-3 17 µM | OVCAR-4 11.9 µM | SK-MEL-2 15.6 µM | SK-OV-3 20.4 µM | SNB-19 7.82 µM | SR 6.24 µM | TK-10 18.4 µM | UACC-257 16.8 µM
